The results in this text go back to ChEMBL document CHEMBL1131171, “Three-dimensional quantitative structure-activity relationship study of the cannabimimetic (aminoalkyl)indoles using comparative molecular field analysis” (J Med Chem, 1998).

pKi: −log10 of the molar value.

Chain of Cannabinoid receptor 1 (P20272 whole entry): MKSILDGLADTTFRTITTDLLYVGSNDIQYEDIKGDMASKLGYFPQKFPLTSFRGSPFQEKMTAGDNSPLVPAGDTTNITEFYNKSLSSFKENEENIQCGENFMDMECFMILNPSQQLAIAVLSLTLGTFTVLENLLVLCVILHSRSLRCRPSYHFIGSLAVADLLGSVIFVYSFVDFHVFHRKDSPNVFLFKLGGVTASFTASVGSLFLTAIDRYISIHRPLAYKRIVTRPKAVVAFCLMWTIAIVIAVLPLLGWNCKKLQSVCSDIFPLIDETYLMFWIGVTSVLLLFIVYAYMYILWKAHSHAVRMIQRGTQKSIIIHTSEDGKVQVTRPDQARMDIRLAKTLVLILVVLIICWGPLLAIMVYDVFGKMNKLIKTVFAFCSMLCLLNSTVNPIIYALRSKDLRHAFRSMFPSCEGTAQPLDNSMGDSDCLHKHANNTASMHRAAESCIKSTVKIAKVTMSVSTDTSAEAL

The test concerns the target Cannabinoid receptor 1 (Rattus norvegicus, UniProt P20272). Nature of the test: Cannabinoid receptor 1 binding affinity by measuring its ability to displace [3H]WIN-55212-2 in rat forebrain membranes. The format is cell membranes, Membrane.
Take `Cc1ccc(C(=O)c2c(C)n(CCN3CCOCC3)c3ccccc23)cc1`: the pKi is 3.15.

Consider `COc1ccc(C(=O)c2c(C)n(CCN3CCOCC3)c3cc(OC)ccc23)cc1`, for which the pKi was 3.06.

Molecule `COc1ccc(C(=O)c2c(C)n(CCN3CCOCC3)c3c(C)cccc23)cc1` had a pKi of 3.08.

In turn, `COc1ccc(C(=O)c2c(C)n(CCN3CCOCC3)c3cc(C)ccc23)cc1` had a pKi of 3.17.

`O=C(c1c2ccccc2cc2ccccc12)c1cn(CCN2CCOCC2)c2ccccc12` showed a pKi of 3.37.

As for `Cc1c(C(=O)c2cccc(Cl)c2)c2ccccc2n1CCN1CCOCC1`, the pKi was 3.02.

For orientation: pKi means the Ki on a negative log10 scale, so that one unit is a factor of ten. Read a high pKi as a low Ki.
